Measurements: PMC8600679, “Substituted Two- to Five-Ring Polycyclic Aromatic Compounds Are Potent Agonists of Atlantic Cod (Gadus morhua) Aryl Hydrocarbon Receptors Ahr1a and Ahr2a” (Environmental Science & Technology, 2021)

biological target: Atlantic cod Ahr1a (Gadus morhua, UniProt A0A6H1Z2L5); experiment: cell-based; settings: Ahr1a EC50 (nM), COS-7 cells, 24 h exposure
Sequence (A0A6H1Z2L5 1-957): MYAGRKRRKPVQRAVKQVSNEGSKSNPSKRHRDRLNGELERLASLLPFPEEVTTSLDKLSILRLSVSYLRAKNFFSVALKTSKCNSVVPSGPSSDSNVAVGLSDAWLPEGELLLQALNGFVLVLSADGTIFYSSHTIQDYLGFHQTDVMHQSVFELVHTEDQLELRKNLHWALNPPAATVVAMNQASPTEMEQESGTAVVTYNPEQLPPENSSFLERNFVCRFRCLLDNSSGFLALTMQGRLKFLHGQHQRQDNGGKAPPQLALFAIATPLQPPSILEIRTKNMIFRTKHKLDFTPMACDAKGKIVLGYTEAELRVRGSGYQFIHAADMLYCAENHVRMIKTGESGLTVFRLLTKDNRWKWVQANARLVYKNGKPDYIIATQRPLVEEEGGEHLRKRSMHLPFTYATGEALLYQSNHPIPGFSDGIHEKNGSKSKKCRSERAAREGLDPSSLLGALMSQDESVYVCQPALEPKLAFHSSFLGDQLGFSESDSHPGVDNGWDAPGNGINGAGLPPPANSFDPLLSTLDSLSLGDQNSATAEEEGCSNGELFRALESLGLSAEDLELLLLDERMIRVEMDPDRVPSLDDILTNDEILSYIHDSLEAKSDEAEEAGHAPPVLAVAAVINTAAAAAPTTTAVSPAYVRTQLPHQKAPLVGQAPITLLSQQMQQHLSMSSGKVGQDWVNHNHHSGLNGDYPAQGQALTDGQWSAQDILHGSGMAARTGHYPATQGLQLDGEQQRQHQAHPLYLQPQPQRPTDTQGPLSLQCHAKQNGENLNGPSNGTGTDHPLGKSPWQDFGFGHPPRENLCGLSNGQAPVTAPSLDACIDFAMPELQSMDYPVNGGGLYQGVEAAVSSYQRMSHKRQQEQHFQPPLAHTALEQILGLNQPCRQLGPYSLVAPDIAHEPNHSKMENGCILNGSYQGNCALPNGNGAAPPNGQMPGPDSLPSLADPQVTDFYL
Sequence (A0A8C5CZZ9 1-645 partner): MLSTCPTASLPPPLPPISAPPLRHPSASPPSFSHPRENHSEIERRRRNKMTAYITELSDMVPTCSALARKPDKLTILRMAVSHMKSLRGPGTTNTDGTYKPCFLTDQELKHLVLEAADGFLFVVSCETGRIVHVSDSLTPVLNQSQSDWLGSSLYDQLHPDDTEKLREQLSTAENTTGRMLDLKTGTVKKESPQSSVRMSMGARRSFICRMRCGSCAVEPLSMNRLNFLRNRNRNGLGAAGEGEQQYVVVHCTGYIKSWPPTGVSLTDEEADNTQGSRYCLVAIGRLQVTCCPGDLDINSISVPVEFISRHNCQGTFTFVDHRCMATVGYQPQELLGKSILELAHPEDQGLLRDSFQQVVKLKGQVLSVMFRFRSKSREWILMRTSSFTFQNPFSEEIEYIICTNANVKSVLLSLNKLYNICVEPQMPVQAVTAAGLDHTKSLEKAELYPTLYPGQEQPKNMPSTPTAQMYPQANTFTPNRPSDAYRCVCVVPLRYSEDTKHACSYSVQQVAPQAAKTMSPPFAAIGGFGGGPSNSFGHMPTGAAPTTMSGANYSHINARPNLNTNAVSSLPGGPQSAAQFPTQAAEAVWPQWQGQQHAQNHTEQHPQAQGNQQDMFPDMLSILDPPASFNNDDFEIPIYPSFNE

| SMILES | EC50 [nM] |
| --- | --- |
| Oc1cccc2c1ccc1c3ccccc3ccc21 [1-COH, Chrysene-1-ol] | 485 |
| Cc1cccc2c1ccc1c3ccccc3ccc21 [1-MC, 1-Methylchrysene] | 175 |

same assay, conditions: COS-7, read-out: Ahr1a Relative Emax (%)

| SMILES | Emax [%] |
| --- | --- |
| Oc1cccc2c1ccc1c3ccccc3ccc21 [1-COH, Chrysene-1-ol] | 116 |
| Cc1cccc2c1ccc1c3ccccc3ccc21 [1-MC, 1-Methylchrysene] | 45.8 |

same assay, conditions: COS-7, read-out: Efficacy (Emax, %) Ahr1a

| SMILES | Emax [%] |
| --- | --- |
| Oc1cccc2c1ccc1c3ccccc3ccc21 [1-COH, Chrysene-1-ol] | 116 |

same assay, conditions: COS-7 cells, 24 h exposure; read-out: Ahr1a EC50

| SMILES | EC50 [nM] |
| --- | --- |
| Oc1ccc2ccc3c4ccccc4ccc3c2c1 [3-COH, Chrysene-3-ol] | 345 |
| COc1ccc2ccc3c4ccccc4ccc3c2c1 [3-MOC, 3-Methoxychrysene] | 195 |

same assay, conditions: EC25 of TCDD divided by concentration of PAC giving 25% of TCDD response

| SMILES | Ahr1a REP25 |
| --- | --- |
| Oc1cccc2c1ccc1c3ccccc3ccc21 [1-COH, Chrysene-1-ol] | 0.0045 |
| Cc1cccc2c1ccc1c3ccccc3ccc21 [1-MC, 1-Methylchrysene] | 0.0070 |
| Oc1ccc2ccc3c4ccccc4ccc3c2c1 [3-COH, Chrysene-3-ol] | 0.00257 |
| COc1ccc2ccc3c4ccccc4ccc3c2c1 [3-MOC, 3-Methoxychrysene] | 0.0056 |

same assay, conditions: Potency (EC50, nM) Ahr1a, Supplementary Table S5

| SMILES | EC50 [nM] |
| --- | --- |
| Oc1cccc2c1ccc1c3ccccc3ccc21 [1-COH, Chrysene-1-ol] | 485 |

same assay, conditions: Supplementary Table S5; read-out: Potency (EC50, nM) Ahr1a

| SMILES | EC50 [nM] |
| --- | --- |
| Oc1ccc2ccc3c4ccccc4ccc3c2c1 [3-COH, Chrysene-3-ol] | 345 |

same assay, conditions: Welch's t-test, Supporting Table S6

| SMILES | Efficacy compared to TCDD with Ahr1a |
| --- | --- |
| Oc1cccc2c1ccc1c3ccccc3ccc21 [1-COH, Chrysene-1-ol] | higher efficacies (superefficacies) than TCDD |
| Cc1cccc2c1ccc1c3ccccc3ccc21 [1-MC, 1-Methylchrysene] | lower efficacies than TCDD |
| Oc1ccc2ccc3c4ccccc4ccc3c2c1 [3-COH, Chrysene-3-ol] | lower efficacies than TCDD |
| COc1ccc2ccc3c4ccccc4ccc3c2c1 [3-MOC, 3-Methoxychrysene] | lower efficacies than TCDD |

same assay, conditions: percent of maximum efficacy determined for TCDD; COS-7 cells, 24 h exposure; None = no agonistic response significantly different from solvent; read-out: Ahr1a Relative Emax (%)

| SMILES | Emax [%] |
| --- | --- |
| Oc1ccc2ccc3c4ccccc4ccc3c2c1 [3-COH, Chrysene-3-ol] | 86.5 |
| COc1ccc2ccc3c4ccccc4ccc3c2c1 [3-MOC, 3-Methoxychrysene] | 66.6 |

biological target: T1, Atlantic cod Ahr2a (Gadus morhua, UniProt A0A6H1Z3G8); experiment: cell-based; settings: Ahr2a EC50 (nM), COS-7 cells, 24 h exposure
T1 sequence (A0A6H1Z3G8 1-1127): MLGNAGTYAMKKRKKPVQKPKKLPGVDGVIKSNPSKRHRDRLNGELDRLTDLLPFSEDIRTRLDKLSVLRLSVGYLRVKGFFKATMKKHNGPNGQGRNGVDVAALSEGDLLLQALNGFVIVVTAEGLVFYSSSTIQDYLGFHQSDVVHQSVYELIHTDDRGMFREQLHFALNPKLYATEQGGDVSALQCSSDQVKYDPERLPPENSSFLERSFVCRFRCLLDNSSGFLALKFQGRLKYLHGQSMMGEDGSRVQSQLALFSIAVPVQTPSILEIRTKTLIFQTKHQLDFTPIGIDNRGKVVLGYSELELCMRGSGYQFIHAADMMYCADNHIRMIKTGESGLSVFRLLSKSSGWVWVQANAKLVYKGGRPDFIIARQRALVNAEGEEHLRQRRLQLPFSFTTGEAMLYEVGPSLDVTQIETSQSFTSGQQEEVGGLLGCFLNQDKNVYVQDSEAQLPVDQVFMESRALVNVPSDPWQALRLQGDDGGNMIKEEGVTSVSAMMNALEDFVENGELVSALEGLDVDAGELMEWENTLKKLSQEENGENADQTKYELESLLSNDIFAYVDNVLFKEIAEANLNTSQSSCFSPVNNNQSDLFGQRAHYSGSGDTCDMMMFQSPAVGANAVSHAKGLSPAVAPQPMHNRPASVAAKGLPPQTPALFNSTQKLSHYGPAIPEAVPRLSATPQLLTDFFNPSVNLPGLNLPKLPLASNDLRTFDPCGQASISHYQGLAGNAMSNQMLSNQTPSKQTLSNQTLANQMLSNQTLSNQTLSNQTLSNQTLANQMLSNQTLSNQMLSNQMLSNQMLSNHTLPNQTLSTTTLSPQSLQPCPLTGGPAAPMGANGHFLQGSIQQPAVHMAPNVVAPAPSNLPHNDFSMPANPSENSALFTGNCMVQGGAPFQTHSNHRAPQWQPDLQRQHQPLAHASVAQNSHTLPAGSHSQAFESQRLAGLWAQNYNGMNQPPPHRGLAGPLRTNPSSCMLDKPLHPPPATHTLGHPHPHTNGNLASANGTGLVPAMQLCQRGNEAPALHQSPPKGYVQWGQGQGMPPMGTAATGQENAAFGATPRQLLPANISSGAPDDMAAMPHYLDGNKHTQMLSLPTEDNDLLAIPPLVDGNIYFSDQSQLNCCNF

| SMILES | EC50 [nM] |
| --- | --- |
| Oc1cccc2c1ccc1c3ccccc3ccc21 [1-COH, Chrysene-1-ol] | 633 |
| Cc1cccc2c1ccc1c3ccccc3ccc21 [1-MC, 1-Methylchrysene] | 172 |

same assay, conditions: Ahr2a versus Ahr1a

| SMILES | fold higher REP25 with Ahr2a compared to Ahr1a |
| --- | --- |
| COc1ccc2ccc3c4ccccc4ccc3c2c1 [3-MOC, 3-Methoxychrysene] | 5- to 10 fold |

same assay, conditions: COS-7, read-out: Ahr2a Relative Emax (%)

| SMILES | Emax [%] |
| --- | --- |
| Oc1cccc2c1ccc1c3ccccc3ccc21 [1-COH, Chrysene-1-ol] | 72.8 |
| Cc1cccc2c1ccc1c3ccccc3ccc21 [1-MC, 1-Methylchrysene] | 43.6 |

same assay, conditions: COS-7 cells, 24 h exposure; read-out: Ahr2a EC50

| SMILES | EC50 [nM] |
| --- | --- |
| Oc1ccc2ccc3c4ccccc4ccc3c2c1 [3-COH, Chrysene-3-ol] | 275 |
| COc1ccc2ccc3c4ccccc4ccc3c2c1 [3-MOC, 3-Methoxychrysene] | 98.6 |

same assay, conditions: EC25 of TCDD divided by concentration of PAC giving 25% of TCDD response

| SMILES | Ahr2a REP25 |
| --- | --- |
| Oc1cccc2c1ccc1c3ccccc3ccc21 [1-COH, Chrysene-1-ol] | 0.0077 |
| Cc1cccc2c1ccc1c3ccccc3ccc21 [1-MC, 1-Methylchrysene] | 0.022 |
| Oc1ccc2ccc3c4ccccc4ccc3c2c1 [3-COH, Chrysene-3-ol] | 0.0099 |
| COc1ccc2ccc3c4ccccc4ccc3c2c1 [3-MOC, 3-Methoxychrysene] | 0.0588 |

same assay, conditions: Potency (EC50, nM) Ahr2a, Supplementary Table S5

| SMILES | EC50 [nM] |
| --- | --- |
| Oc1cccc2c1ccc1c3ccccc3ccc21 [1-COH, Chrysene-1-ol] | 633 |
| Cc1cccc2c1ccc1c3ccccc3ccc21 [1-MC, 1-Methylchrysene] | 172 |

same assay, conditions: Supplementary Table S5; read-out: Potency (EC50, nM) Ahr2a

| SMILES | EC50 [nM] |
| --- | --- |
| Oc1ccc2ccc3c4ccccc4ccc3c2c1 [3-COH, Chrysene-3-ol] | 274 |

same assay, conditions: Welch's t-test, Supporting Table S6

| SMILES | Efficacy compared to TCDD via Ahr2a |
| --- | --- |
| Oc1cccc2c1ccc1c3ccccc3ccc21 [1-COH, Chrysene-1-ol] | lower efficacies in comparison to TCDD |
| Cc1cccc2c1ccc1c3ccccc3ccc21 [1-MC, 1-Methylchrysene] | lower efficacies in comparison to TCDD |
| Oc1ccc2ccc3c4ccccc4ccc3c2c1 [3-COH, Chrysene-3-ol] | lower efficacies in comparison to TCDD |
| COc1ccc2ccc3c4ccccc4ccc3c2c1 [3-MOC, 3-Methoxychrysene] | lower efficacies in comparison to TCDD |

same assay, conditions: percent of maximum efficacy determined for TCDD; COS-7 cells, 24 h exposure; None = no agonistic response significantly different from solvent; read-out: Ahr2a Relative Emax (%)

| SMILES | Emax [%] |
| --- | --- |
| Oc1ccc2ccc3c4ccccc4ccc3c2c1 [3-COH, Chrysene-3-ol] | 66.1 |
| COc1ccc2ccc3c4ccccc4ccc3c2c1 [3-MOC, 3-Methoxychrysene] | 80.8 |

system: COS-7 cells; experiment: Resazurin reduction viability assay; format: cell-based, simian; settings: highest concentrations used; relative to 0.5% DMSO solvent control
Experimental: COS-7 simian kidney cells were seeded onto 96 well plates (10 000 cells/well) in Dulbecco’s modified Eagle’s medium (DMEM) with phenol red, supplemented with 10% fetal bovine serum (FBS), 4 mM L-glutamate, 1 mM sodium pyruvate, and 100 U/mL penicillin–streptomycin (Merck KGaA, Darmstadt, Germany), and cultivated at 37 °C with 5% CO2 for 24 h. Cells were transiently co-transfected with a eukaryotic expression plasmid (pcDNA3.1/Zeo(+), 31 ng/well), pcDNA3.1/Zeo(+)-based plasmids encoding gmAhr1a or gmAhr2a (3 ng/well), gmArnt1 (6 ng/well),[37] a luciferase reporter plasmid containing four DREs (pGudLuc6.1, 30 ng/well), and a β-galactosidase normalization plasmid (pCMV-βGAL, 30 ng/well),[45],[46] using a Mirus TransIT LT-1 transfection reagent according to the recommendations of the supplier. COS-7 cells were seeded and cultivated in DMEM (4500 mg/L glucose), supplemented with 10% FBS, 1 mM sodium pyruvate, and 4 mM L-glutamine. In the exposure medium, FBS was substituted with 10% charcoal-stripped FBS (VWR International, Radnor). To create the exposure media with the highest test concentration, compounds solved in dimethyl sulfoxide (DMSO) were diluted 1:200 in exposure medium, resulting in exposure media with 1× test compound and 0.5% DMSO. The highest concentration exposure media were serially diluted five times (1:2 for the first dilution, then 1:5) in exposure medium supplemented with 0.5% DMSO. Following transfection, cells were incubated in exposure media containing PACs or solvent control (0.5% DMSO) for 24 h. Reporter gene assays were repeated at least three times and with three technical replicates per exposure. TCDD (30 pM to 100 nM) was used as a known agonist in each experiment. Absorbance and luminescence measurements were performed on an EnSpire Multimode plate reader (PerkinElmer, Waltham, MA). While no wavelength filtering was used to measure firefly luciferase activity by luminescence, absorbance measurements to quantify β-galactosidase activity were performed at 420 nm wavelength. The viability of exposed cells was evaluated using the resazurin reduction assay as previously described.[47],[48]
Recorded luminescence was normalized for variation in transfection efficiencies using β-galactosidase enzyme activity. The difference in normalized light units measured in lysates from exposed cells to solvent-exposed cells was calculated and expressed relative to the maximum response in TCDD-exposed cells. Response curves were prepared by nonlinear regression analyses in Prism v7 and used for the determination of half-maximal effective concentration values (EC50) and maximum efficacies (Emax). EC50 values were only determined for compounds that produced a sigmoidal concentration–response curve. Relative effect potencies 25 (REP25) were determined by dividing the EC25 of TCDD by the concentration of PAC necessary to produce a response equal to 25% of the response of TCDD with gmAhrs, essentially as described by Villeneuve et al. and Lam et al.[49],[50] The D’Agostino–Pearson (Ahr activation data) or Kolmogorov–Smirnov (viability data) normality tests were used to confirm the normal distribution of the data. One-way analysis of variance (ANOVA) and Dunnett′s test were used to compare responses at different concentrations of compounds and solvent control mediated via the same Ahr, in addition to comparing metabolic activity in PAC-exposed cells and cells exposed to solvent control in the resazurin reduction assay. Welch′s t-test was used to compare the maximum Ahr-mediated response and potency (Emax and EC50) between Ahr1a or Ahr2a produced by the same test compound (Prism v7).

| SMILES | Metabolic activity (cell viability) of exposed COS-7 cells |
| --- | --- |
| Oc1cccc2c1ccc1c3ccccc3ccc21 [1-COH, Chrysene-1-ol] | slight reduction in metabolic activities |
| Oc1ccc2ccc3c4ccccc4ccc3c2c1 [3-COH, Chrysene-3-ol] | slight reduction in metabolic activities |
| COc1ccc2ccc3c4ccccc4ccc3c2c1 [3-MOC, 3-Methoxychrysene] | slight reduction in metabolic activities |

system: not given; experiment: not given; set-up: method as in PMID 29505926; settings: from TEF values; cited from earlier work

| SMILES | agonistic potential, times higher than CHR [times] |
| --- | --- |
| Cc1cccc2c1ccc1c3ccccc3ccc21 [1-MC, 1-Methylchrysene] | 10 |

same assay, conditions: toxic potential relative to the toxicity of BAP; cited from earlier work

| SMILES | toxic equivalent factor (TEF) |
| --- | --- |
| Cc1cccc2c1ccc1c3ccccc3ccc21 [1-MC, 1-Methylchrysene] | 0.1 |
